Measurements: patent US20050107432A1, “Sigma receptor binder containing indanone derivative” (priority 2002, published 2005)
Where a name gives a salt, the structure may show the parent alone.

Tests used:
sigma receptor [1] = conditions: disclosed in J. Med. Chem. 37, 364 (1994), Neuroscience Lett. 260, 5 (1999), JP-A 11-349481; cited from earlier work
Sigma receptor [2] = experiment: Sigma receptor binding assay (3H-DTG, guinea pig brain crude membrane fraction); conditions: for IC50: inhibition of 3H-DTG binding to guinea pig brain crude membrane fraction, 25° C., 1 hour; for sigma receptor binding action: result in words, no value given
Protocol: Sigma Receptor Binding Assay
(1) Preparation of Receptor
Ten male guinea pigs (Crj, Hartley, from Charles River Japan, Inc.) (body weight: 234 g to 260 g) were decapitated, exsanguinated and died. The brain was immediately removed, homogenized with ten volumes of 50 mM Tris-HCl (pH 7.4) using a Teflon homogenizer and was centrifuged at a rate of 50000× g at 4° C. for 20 minutes. The washing procedure was repeated once more under the same conditions, and the resulting crude membrane fraction was subjected to the assay.
The filter paper was transferred to a vial for radioactivity measurement, mixed with 5 mL of a liquid scintillation cocktail (Atomlight, from PACKARD), and the radioactivity on the filter was determined by a liquid scintillation counter (Model 1500, from PACKARD) for 2 minutes. The specific binding and the non-specific binding in the absence of the test compound were determined in the same way as above except for using 50% DMSO solution instead of the test compound and using a 100 μM Haloperidol solution instead of the test compound, respectively.
(3) Determination of Inhibition
The inhibitions of the test compound at individual concentrations were determined from the ratio of the specific binding in the presence of the test compound to the specific binding in the absence thereof. The dose-response curve was regressed according to a logit-log model in which the ratio of the specific binding in the presence of the test compound to the specific binding in the absence thereof was subjected to logit transformation and plotted against the common logarithm value of each concentration.

acetylcholinesterase = target: T1, acetylcholinesterase (Rattus norvegicus, UniProt P37136); experiment: Inhibitory effect on acetylcholinesterase (Ellman method, rat brain homogenate); format: biochemical; conditions: rat brain homogenate as source of acetylcholinesterase; read-out: Acetylcholinesterase inhibition IC50
T1 construct: from tissue; host or cells: rat brain homogenate
T1 sequence (P37136 32-614): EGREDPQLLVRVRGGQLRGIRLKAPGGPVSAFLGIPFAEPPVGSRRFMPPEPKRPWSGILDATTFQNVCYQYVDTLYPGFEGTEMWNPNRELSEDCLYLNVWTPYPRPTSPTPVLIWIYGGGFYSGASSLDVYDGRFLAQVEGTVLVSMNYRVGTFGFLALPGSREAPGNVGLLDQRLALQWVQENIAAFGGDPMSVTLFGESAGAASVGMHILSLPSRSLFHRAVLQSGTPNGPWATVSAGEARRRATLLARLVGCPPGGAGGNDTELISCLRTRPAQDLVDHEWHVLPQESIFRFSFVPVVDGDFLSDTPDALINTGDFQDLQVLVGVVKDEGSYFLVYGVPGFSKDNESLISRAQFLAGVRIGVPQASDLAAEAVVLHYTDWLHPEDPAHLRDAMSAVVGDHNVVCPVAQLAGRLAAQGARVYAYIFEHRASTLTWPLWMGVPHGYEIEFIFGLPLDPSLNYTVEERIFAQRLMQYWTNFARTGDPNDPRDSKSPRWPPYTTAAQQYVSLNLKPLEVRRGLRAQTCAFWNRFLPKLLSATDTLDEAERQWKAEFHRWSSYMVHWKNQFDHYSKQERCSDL
Protocol: Inhibitory Effect on Acetylcholinesterase
To DTNB (5,5′-dithiobis(2-nitrobenzoic acid)), acethylthiocholine (as a substrate) and a test compound was added the rat brain homogenate and incubated.

For `COc1cc2c(cc1OC)C(=O)C(C1CCN(Cc3ccccc3)CC1)C2` (centres unmarked) [1-benzyl-4-(5,6-dimethoxy-1-indanon)-2-yl]piperidine], the “sigma receptor binding action” value (sigma receptor [1]) is listed as “has a sigma receptor binding action”.
In the case of `COc1cc2c(cc1OC)C(=O)C(CC1CCN(Cc3ccccc3)CC1)C2` (centres unmarked) [1-benzyl-4-[(5,6-dimethoxy-1-indanon)-2-yl]methylpiperidine], the “sigma receptor binding action” value (sigma receptor [1]) is listed as “has a sigma receptor binding action”.
Work on `CCOc1cc2c(cc1OC)CC(CC1CCN(Cc3ccccc3)CC1)C2=O` (centres unmarked) [Example 1, 1-benzyl-4-[(6-ethoxy-5-methoxy-1-indanon)-2-yl]methylpiperidine hydrochloride] yielded an IC50 (Sigma receptor [2]) of 5.1 nM and an IC50 (acetylcholinesterase) of 7.2 nM.
Work on `CCCOc1cc2c(cc1OC)C(=O)C(CC1CCN(Cc3ccccc3)CC1)C2` (centres unmarked) [Example 2, 1-benzyl-4-[[5-methoxy-6-(1-propyloxy)-1-indanon]-2-yl]methylpiperidine hydrochloride] yielded an IC50 (acetylcholinesterase) of 2.7 nM.
In the case of `COc1cc2c(cc1OCC#N)CC(CC1CCN(Cc3ccccc3)CC1)C2=O` (centres unmarked) [Example 7, 1-benzyl-4-[(5-cyanomethoxy-6-methoxy-1-indanon)-2-yl]methylpiperidine hydrochloride], the IC50 (acetylcholinesterase) is reported as 2.4 nM.
With `CCOc1cc2c(cc1OCC)C(=O)C(CC1CCN(Cc3cccc(F)c3)CC1)C2` (centres unmarked) [Example 9, 1-(3-fluorobenzyl)-4-[(5,6-diethoxy-1-indanon)-2-yl]methylpiperidine hydrochloride] the IC50 (acetylcholinesterase) was 3.4 nM.
`CCOc1cc2c(cc1OCC)C(=O)C(CC1CCN(Cc3cccc(C)c3)CC1)C2` (centres unmarked) [Example 15, 1-(3-methylbenzyl)-4-[(5,6-diethoxy-1-indanon)-2-yl]methylpiperidine hydrochloride] gave an IC50 (acetylcholinesterase) of 9.1 nM.
Work on `CCOc1cc2c(cc1OC)CC(F)(CC1CCN(Cc3ccccc3)CC1)C2=O` (centres unmarked) [Example 37, 1-benzyl-4-[(6-ethoxy-2-fluoro-5-methoxy-1-indanon)-2-yl]methylpiperidine hydrochloride] yielded an IC50 (Sigma receptor [2]) of 4.3 nM and an IC50 (acetylcholinesterase) of 0.73 nM.
Work on `CCOc1cc2c(cc1OC)C(=O)C(F)(CC1CCN(Cc3ccccc3)CC1)C2` (centres unmarked) [Example 38, 1-benzyl-4-[(5-ethoxy-2-fluoro-6-methoxy-1-indanon)-2-yl]methylpiperidine hydrochloride] yielded an IC50 (acetylcholinesterase) of 0.28 nM.
With `CCOc1cc2c(cc1OCC)C(=O)C(F)(CC1CCN(Cc3cccc(Cl)c3)CC1)C2` (centres unmarked) [Example 44, 1-(3-chlorobenzyl)-4-[(5,6-diethoxy-2-fluoro-1-indanon)-2-yl]methylpiperidine hydrochloride] the IC50 (acetylcholinesterase) was 0.75 nM.
`CCOc1cc2c(cc1OCC)C(=O)C(F)(CC1CCN(Cc3cccc(C)c3)CC1)C2` (centres unmarked) [Example 47, 1-(3-methylbenzyl)-4-[(5,6-diethoxy-2-fluoro-1-indanon)-2-yl]methylpiperidine hydrochloride] showed an IC50 (acetylcholinesterase) of 1 nM.
For `CCOc1cc2c(cc1OCC)C(=O)C(F)(CC1CCN(CC3CCCCC3)CC1)C2` (centres unmarked) [Example 50, 1-cyclohexylmethyl-4-[(5,6-diethoxy-2-fluoro-1-indanon)-2-yl]methylpiperidine hydrochloride], the IC50 (acetylcholinesterase) was 1.9 nM.
With `COc1cc2c(cc1OC)C(=O)C(Cl)(CC1CCN(Cc3ccccc3)CC1)C2.Cl` (centres unmarked) [Example 67, 1-Benzyl-4-[(5,6-dimethoxy-2-chloro-1-indanon)-2-yl]methylpiperidine hydrochloride] the “sigma receptor binding action” value (Sigma receptor [2]) was “found to have a sigma receptor binding action”.
With `CCOc1cc2c(cc1OCC)C(=O)C(Cl)(CC1CCN(Cc3ccccc3)CC1)C2.Cl` (centres unmarked) [Example 68, 1-Benzyl-4-[(5,6-diethoxy-2-chloro-1-indanon)-2-yl]methylpiperidine hydrochloride] the IC50 (Sigma receptor [2]) was 2.6 nM and the “sigma receptor binding action” value (Sigma receptor [2]) was “found to have a sigma receptor binding action”.
In the case of `CCOc1cc2c(cc1OC)C(=O)C(Cl)(CC1CCN(Cc3ccccc3)CC1)C2.Cl` (centres unmarked) [Example 69, 1-Benzyl-4-[(5-ethoxy-6-methoxy-2-chloro-1-indanon)-2-yl]methylpiperidine hydrochloride], the “sigma receptor binding action” value (Sigma receptor [2]) is reported as “found to have a sigma receptor binding action”.
For `COc1cc2c(cc1OC)C(=O)C(Br)(CC1CCN(Cc3ccccc3)CC1)C2.Cl` (centres unmarked) [Example 70, 1-Benzyl-4-[(5,6-dimethoxy-2-bromo-1-indanon)-2-yl]methylpiperidine hydrochloride], the “sigma receptor binding action” value (Sigma receptor [2]) was “found to have a sigma receptor binding action”.
For `COc1cc2c(cc1OC)C(=O)C(C)(CC1CCN(Cc3ccccc3)CC1)C2.Cl` (centres unmarked) [Example 71, 1-Benzyl-4-[(5,6-dimethoxy-2-methyl-1-indanon)-2-yl]methylpiperidine hydrochloride], the “sigma receptor binding action” value (Sigma receptor [2]) was “found to have a sigma receptor binding action”.
